Data as given in US20180168208A1 (priority 2014, published 2018).
Like-named read-outs stand apart in the source and are kept apart here.

Target: T1R1/T1R3 receptor (Felis catus, UniProt E3UMS2)
Experiment: cell-based
Assay type: cell-based
Source text: HEK293 cells that stably express T1R3 and inducibly express T1R1 were exposed to transmembrane compounds alone or in combination with one or more amino acids and/or one or more nucleotides to activate the umami receptor. Activation of the T1R1/T1R3 receptor was detected by a change in intracellular calcium levels using a calcium sensitive fluorescent dye. Cells that express T1R3 but not T1R1 were used as a control. A FLIPR® Tetra or a FlexStation® 3 was used for data capture.
In each experiment, serial dilutions of up to 10 mM of the transmembrane compound were added to the T1R1/T1R3-expressing cells.

[1] = + Alanine, Table 17, read-out: EC50 + Alanine
[2] = +Alanine (20 mM), Table 18, read-out: EC50 +Alanine
[3] = EC50 + IMP, + IMP (0.2 mM), Table 17
[4] = EC50 +Alanine + IMP, +Alanine (20 mM) + IMP (0.2 mM), Table 18
[5] = EC50 +IMP, +IMP (0.2 mM), Table 18
[6] = compound alone in buffer, Table 17, read-out: EC50 + buffer (alone)
[7] = compound alone in buffer, Table 18, read-out: EC50 +buffer (alone)

Compound: O=C(Nc1ccccc1Br)N[C@@H]1c2ccccc2C[C@@H]1O (stereo in doubt) [1-(2-bromophenyl)-3-((1R,2S)-2-hydroxy-2,3-dihydro-1H-inden-1-yl)urea]
- Thres +Alanine (+ Alanine (20 nM), Table 17): 3 mM
- Max resp % of IMP + Alanine (+ Alanine, Table 17): 33.0 % of IMP
- Max resp ΔF/F +Alanine (+ Alanine, Table 17): 0.3
- EC50 [1]: > 3000 µM
- Max resp % of ALa + IMP (+ IMP (0.2 mM), Table 17): 44.9 % of ALa
- Thres + IMP (+ IMP (0.2 mM), Table 17): 3 mM
- Max resp ΔF/F +Alanine (+Alanine (20 mM), Table 18): 0.3
- Thres +Alanine (+Alanine (20 mM), Table 18): 3 mM
- EC50 [2]: > 3000 µM
- Max resp % of Ala +IMP (+IMP (0.2 mM), Table 18): 44.9 % of Ala
- Max resp ΔF/F +IMP (+IMP (0.2 mM), Table 18): 0.378
- EC50 [3]: > 3000 µM
- EC50 [4]: > 3000 µM
- EC50 [5]: > 3000 µM
- EC50 [6]: > 3000 µM
- EC50 [7]: > 3000 µM

Compound: O=C(CN1C(=O)C(=O)N(Cc2ccccc2)C1=O)c1ccccc1 [1-benzyl-3-(2-oxo-2-phenylethyl)imidazolidine-2,4,5-trione]
- Thres +Alanine (+ Alanine (20 nM), Table 17): 1 mM
- Max resp % of IMP + Alanine (+ Alanine, Table 17): 127.6 % of IMP
- Max resp ΔF/F +Alanine (+ Alanine, Table 17): 1.3
- Max resp % of ALa + IMP (+ IMP (0.2 mM), Table 17): 135.7 % of ALa
- Thres + IMP (+ IMP (0.2 mM), Table 17): 0.08 mM
- Max resp ΔF/F +Alanine (+Alanine (20 mM), Table 18): 1.3
- Thres +Alanine (+Alanine (20 mM), Table 18): 1 mM
- Max resp % of Ala +IMP (+IMP (0.2 mM), Table 18): 135.7 % of Ala
- Max resp ΔF/F +IMP (+IMP (0.2 mM), Table 18): 1.140

Compound: CSc1ccc(-c2nnn(Cc3ccccn3)n2)cc1 [2-((5-(4-(methylthio)phenyl)-2H-tetrazol-2-yl)methyl)pyridine]
- Max resp % of ALa + IMP (+ IMP (0.2 mM), Table 17): 80.7 % of ALa
- Thres + IMP (+ IMP (0.2 mM), Table 17): 0.1575 mM
- Max resp % of Ala +IMP (+IMP (0.2 mM), Table 18): 80.7 % of Ala
- Max resp ΔF/F +IMP (+IMP (0.2 mM), Table 18): 0.678
- EC50 [3]: 630 µM
- EC50 [4]: 270 µM
- EC50 [5]: 630 µM

Compound: CCC(CC)NC(=O)c1ccc(OC)c(OC)c1 [3,4-dimethoxy-N-(pentan-3-yl)benzamide]
- Thres +Alanine (+ Alanine (20 nM), Table 17): 0.3 mM
- Max resp % of IMP + Alanine (+ Alanine, Table 17): 43.9 % of IMP
- Max resp ΔF/F +Alanine (+ Alanine, Table 17): 0.545
- EC50 [1]: > 10000 µM
- Max resp % of ALa + IMP (+ IMP (0.2 mM), Table 17): 81.0 % of ALa
- Thres + IMP (+ IMP (0.2 mM), Table 17): 0.5 mM
- Max resp ΔF/F +Alanine (+Alanine (20 mM), Table 18): 0.545
- Thres +Alanine (+Alanine (20 mM), Table 18): 0.3 mM
- EC50 [2]: > 10000 µM
- Max resp % of Ala +IMP (+IMP (0.2 mM), Table 18): 81.0 % of Ala
- Max resp ΔF/F +IMP (+IMP (0.2 mM), Table 18): 0.9975
- EC50 [3]: 2000 µM
- EC50 [4]: > 3000 µM
- EC50 [5]: 2000 µM
- EC50 [6]: > 10000 µM
- EC50 [7]: > 10000 µM

Compound: CCC(CC)NC(=O)c1ccc(C)c(C)c1 [3,4-dimethyl-N-(pentan-3-yl)benzamide]
- Thres +Alanine (+ Alanine (20 nM), Table 17): 3 mM
- Max resp % of IMP + Alanine (+ Alanine, Table 17): 97.8 % of IMP
- Max resp ΔF/F +Alanine (+ Alanine, Table 17): 1.2150
- EC50 [1]: > 3000 µM
- Max resp % of ALa + IMP (+ IMP (0.2 mM), Table 17): 125.7 % of ALa
- Thres + IMP (+ IMP (0.2 mM), Table 17): 0.525 mM
- Max resp ΔF/F +Alanine (+Alanine (20 mM), Table 18): 1.2150
- Thres +Alanine (+Alanine (20 mM), Table 18): 3 mM
- EC50 [2]: > 3000 µM
- Max resp % of Ala +IMP (+IMP (0.2 mM), Table 18): 125.7 % of Ala
- Max resp ΔF/F +IMP (+IMP (0.2 mM), Table 18): 1.5475
- EC50 [3]: 2100 µM
- EC50 [4]: 1700 µM
- EC50 [5]: 2100 µM
- EC50 [6]: > 3000 µM
- EC50 [7]: > 3000 µM

Compound: COc1ccc(C(=O)NC(C)c2ccccc2)cc1C (stereo not drawn) [4-methoxy-3-methyl-N-(1-phenylethyl)benzamide]
- Thres +Alanine (+ Alanine (20 nM), Table 17): 3 mM
- Max resp % of IMP + Alanine (+ Alanine, Table 17): 41.0 % of IMP
- Max resp ΔF/F +Alanine (+ Alanine, Table 17): 0.51
- EC50 [1]: > 3000 µM
- Max resp % of ALa + IMP (+ IMP (0.2 mM), Table 17): 95.6 % of ALa
- Thres + IMP (+ IMP (0.2 mM), Table 17): 0.35 mM
- Max resp ΔF/F +Alanine (+Alanine (20 mM), Table 18): 0.51
- Thres +Alanine (+Alanine (20 mM), Table 18): 3 mM
- EC50 [2]: > 3000 µM
- Max resp % of Ala +IMP (+IMP (0.2 mM), Table 18): 95.6 % of Ala
- Max resp ΔF/F +IMP (+IMP (0.2 mM), Table 18): 1.1775
- EC50 [3]: 1400 µM
- EC50 [4]: 1200 µM
- EC50 [5]: 1400 µM
- EC50 [6]: > 3000 µM
- EC50 [7]: > 3000 µM

Compound: CCCC(C)NC(=O)c1ccc(OC)c(C)c1 (stereo not drawn) [4-methoxy-3-methyl-N-(pentan-2-yl)benzamide]
- Thres +Alanine (+ Alanine (20 nM), Table 17): 0.050 mM
- Max resp % of IMP + Alanine (+ Alanine, Table 17): 126.0 % of IMP
- Max resp ΔF/F +Alanine (+ Alanine, Table 17): 1.5650
- Max resp % of ALa + IMP (+ IMP (0.2 mM), Table 17): 128.9 % of ALa
- Thres + IMP (+ IMP (0.2 mM), Table 17): 0.025 mM
- Max resp ΔF/F +Alanine (+Alanine (20 mM), Table 18): 1.5650
- Thres +Alanine (+Alanine (20 mM), Table 18): 0.050 mM
- EC50 [2]: 200 µM
- Max resp % of Ala +IMP (+IMP (0.2 mM), Table 18): 128.9 % of Ala
- Max resp ΔF/F +IMP (+IMP (0.2 mM), Table 18): 1.5875
- EC50 [3]: 100 µM
- EC50 [4]: 30 µM
- EC50 [5]: 100 µM
- EC50 [6]: 400 µM
- EC50 [7]: 400 µM
- EC50 (read-out: EC50 + Alanine): 200 µM
